Measurements published in publication PMC12622905, “CYP71D8 and CYP82A2 catalyze the last committed step in biosynthesis of glyceollin isomers in soybean” (Plant Biotechnology, 2025).

Columns and labels:
CYP82A24 = target: T1, CYP82A24 (Glycine max, UniProt I1MI36); assay: HPLC of glyceollin III formation, recombinant yeast microsomes; format: biochemical; conditions: NADPH; potassium phosphate pH 7.5; 30°C
T1 construct: gene LOC100782866; synthetic gene in pYES2 (BamHI site); recombinant yeast BJ2168 microsomes with Lotus japonicus CPR
T1 sequence (I1MI36 1-521): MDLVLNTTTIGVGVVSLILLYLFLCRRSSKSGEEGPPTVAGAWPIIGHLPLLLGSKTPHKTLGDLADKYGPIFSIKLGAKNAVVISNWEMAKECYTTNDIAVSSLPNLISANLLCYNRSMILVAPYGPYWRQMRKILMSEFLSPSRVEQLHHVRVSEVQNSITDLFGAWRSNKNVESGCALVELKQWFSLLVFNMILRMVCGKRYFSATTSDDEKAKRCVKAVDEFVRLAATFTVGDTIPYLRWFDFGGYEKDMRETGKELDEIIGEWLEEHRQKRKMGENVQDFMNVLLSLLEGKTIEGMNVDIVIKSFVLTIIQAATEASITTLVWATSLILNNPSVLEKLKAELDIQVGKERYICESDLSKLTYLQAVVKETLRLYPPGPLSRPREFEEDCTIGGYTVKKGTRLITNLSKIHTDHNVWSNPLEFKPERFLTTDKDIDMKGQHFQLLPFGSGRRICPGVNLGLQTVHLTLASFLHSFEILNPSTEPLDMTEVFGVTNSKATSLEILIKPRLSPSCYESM

CYP71D145 = target: T2, CYP71D145 (Glycine max, UniProt A0A0R0HDK6); assay: HPLC of glyceollin I formation, recombinant yeast microsomes; format: biochemical; conditions: NADPH; potassium phosphate pH 7.5; 30°C, 5 h
T2 construct: gene GLYMA_11G062500; full ORF in pYES2.1 TOPO; recombinant yeast BJ2168 microsomes with Lotus japonicus CPR
T2 sequence (A0A0R0HDK6 1-505): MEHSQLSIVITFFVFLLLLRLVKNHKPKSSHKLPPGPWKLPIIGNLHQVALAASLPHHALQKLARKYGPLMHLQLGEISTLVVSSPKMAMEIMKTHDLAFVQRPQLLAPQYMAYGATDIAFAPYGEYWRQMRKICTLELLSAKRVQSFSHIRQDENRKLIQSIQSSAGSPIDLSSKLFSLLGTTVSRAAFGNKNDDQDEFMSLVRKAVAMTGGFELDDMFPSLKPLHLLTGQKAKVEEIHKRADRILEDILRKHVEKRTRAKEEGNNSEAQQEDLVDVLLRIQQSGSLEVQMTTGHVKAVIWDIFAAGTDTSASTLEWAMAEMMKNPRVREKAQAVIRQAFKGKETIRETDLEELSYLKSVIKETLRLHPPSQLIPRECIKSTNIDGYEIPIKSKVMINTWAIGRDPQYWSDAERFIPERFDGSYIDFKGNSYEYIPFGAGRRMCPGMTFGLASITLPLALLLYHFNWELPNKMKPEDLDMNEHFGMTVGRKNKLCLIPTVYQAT

CYP71D106 = target: T3, CYP71D106 (Glycine max, UniProt K7K4H7); assay: as above; format: biochemical; conditions: NADPH; potassium phosphate pH 7.5; 30°C, 5 h
T3 construct: gene LOC100817439; synthetic gene in pYES2 (BamHI site); recombinant yeast BJ2168 microsomes with Lotus japonicus CPR
T3 sequence (K7K4H7 1-503): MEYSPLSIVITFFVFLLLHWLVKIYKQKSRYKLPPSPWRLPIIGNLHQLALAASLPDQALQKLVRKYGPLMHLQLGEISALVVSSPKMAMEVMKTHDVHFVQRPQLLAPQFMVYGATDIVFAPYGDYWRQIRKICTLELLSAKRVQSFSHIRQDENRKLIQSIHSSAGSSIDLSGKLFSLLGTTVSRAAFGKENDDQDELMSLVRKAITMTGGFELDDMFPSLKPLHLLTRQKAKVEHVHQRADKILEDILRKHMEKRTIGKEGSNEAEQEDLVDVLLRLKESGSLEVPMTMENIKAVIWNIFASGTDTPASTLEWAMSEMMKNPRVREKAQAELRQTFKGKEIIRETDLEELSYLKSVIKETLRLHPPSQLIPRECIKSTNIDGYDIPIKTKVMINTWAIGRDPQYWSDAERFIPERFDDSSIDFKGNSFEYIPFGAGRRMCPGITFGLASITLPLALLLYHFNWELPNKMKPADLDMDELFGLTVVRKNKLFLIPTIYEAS

[1] = substrate: CC(C)=CCc1cc2c(cc1O)OC[C@@]1(O)c3ccc(O)cc3O[C@@H]21; assay: HPLC of glyceollin III formation, recombinant yeast microsomes, Michaelis-Menten fit; format: biochemical, Glycine max; conditions: 2 mM NADPH, 0.1 M potassium phosphate pH 7.5, 10% sucrose, 14 mM 2-mercaptoethanol, 30°C, 20 min
[2] = substrate: CC(C)=CCc1c(O)ccc2c1OC[C@@]1(O)c3ccc(O)cc3O[C@@H]21; assay: HPLC of glyceollin I formation, recombinant yeast microsomes, Michaelis-Menten fit; format: biochemical, Glycine max; conditions: 2 mM NADPH, 0.1 M potassium phosphate pH 7.5, 10% sucrose, 14 mM 2-mercaptoethanol, 30°C, 20 min

CC(C)=CCc1cc2c(cc1O)OC[C@@]1(O)c3ccc(O)cc3O[C@@H]21 [2DG, 2-dimethylallylglycinol]
HPLC of glyceollin III formation, recombinant yeast microsomes (CYP82A24): CYP82A24 also exhibited GS3 activity with 2-dimethylallylglycinol

CC(C)=CCc1c(O)ccc2c1OC[C@@]1(O)c3ccc(O)cc3O[C@@H]21 [4DG, 4-dimethylallylglycinol]
HPLC of glyceollin I formation, recombinant yeast microsomes (CYP71D145): CYP71D145 produced only glyceollin I in the enzyme assay
HPLC of glyceollin I formation, recombinant yeast microsomes (CYP71D106): CYP71D106 yielded glyceollin I and two other unknown compounds (P1 and P2)

B1: CYP82A2 (GS3, glyceollin III synthase) (Glycine max) (protein)
chain: MELVLNSTTIGVGVVSLILLLYLFLRGGSWKSGEEGPPTVAGAWPIIGHLPLLLGSKTPHKTLGDLADKYGPIFSIKIGAKNAVVVSNWEMAKECYTTNDIAVSSLPDLISANLLCYNRSMIVVAPYGPYWRQLRKILMSEFLSPSRVEQLHHVRVSEVQSSITELFRDWRSNKNVQSGFATVELKQWFSLLVFNMILRMVCGKRYFSASTSDDEKANRCVKAVDEFVRLAATFTVGDAIPYLRWFDFGGYENDMRETGKELDEIIGEWLDEHRQKRKMGENVQDLMSVLLSLLEGKTIEGMNVDIVIKSFVLTVIQAGTEASITTLIWATSLILNNPSVLEKLKAELDIQVGKERYICESDLSKLTYLQAVVKETLRLYPPAPLSRPREFEEDCTIGGYTVKKGTRLITNLSKIHTDHNVWSNPLEFKPERFLTTDKDIDMKGQHFQLLPFGGGRRICPGINLGLQTVRLTLASFLHSFEILNPSTEPLDMTEVFRATNTKATPLEILIKPRLSPSCYESI
notes: full ORF in pYES2.1 TOPO; yeast BJ2168 microsomes co-expressing Lotus japonicus CPR
Km [1]: 9.5 ± 1.0 µM

B2: CYP71D8 (GS1, glyceollin I synthase) (Glycine max) (protein)
chain: MEYSPLSIVITFFVFLLLHWLVKTYKQKSSHKLPPGPWRLPIIGNLHQLALAASLPDQALQKLVRKYGPLMHLQLGEISTLVVSSPKMAMEMMKTHDVHFVQRPQLLAPQFMVYGATDIAFAPYGDYWRQIRKICTLELLSAKRVQSFSHIRQDENKKLIQSIHSSAGSPIDLSGKLFSLLGTTVSRAAFGKENDDQDEFMSLVRKAITMTGGFEVDDMFPSLKPLHLLTRQKAKVEHVHQRADKILEDILRKHMEKRTRVKEGNGSEAEQEDLVDVLLRLKESGSLEVPMTMENIKAVIWNIFAAGTDTSASTLEWAMSEMMKNPKVKEKAQAELRQIFKGKEIIRETDLEELSYLKSVIKETLRLHPPSQLIPRECIISTNIDGYEIPIKTKVMINTWAIGRDPQYWSDADRFIPERFNDSSIDFKGNSFEYIPFGAGRRMCPGMTFGLASITLPLALLLYHFNWELPNKMKPEDLDMDEHFGMTVARKNKLFLIPTVYEAS
notes: as for B1
Km [2]: 1.3 ± 0.2 µM
